In article PMC3614091 (Organic & biomolecular chemistry, 2010):

What was measured:
[1] = target: T1, PDZ2 of PSD-95 (Homo sapiens, UniProt P78352); assay: Fluorescence polarization assay, PSD-95 PDZ2; format: binding; details: tested at 500 µM (data not shown)
[2] = target: T2, PICK1 PDZ domain (Rattus norvegicus, UniProt Q9EP80); format: binding; details: for affinity for PICK1 PDZ domain: at up to 500 µM concentrations (data not shown)
[3] = target: T3, PDZ3 of PSD-95 (Homo sapiens, UniProt P78352); assay: Fluorescence polarization assay, PSD-95 PDZ3; format: binding; details: tested at 500 µM (data not shown)
[4] = target: T4, PDZ1 of PSD-95 (Homo sapiens, UniProt P78352); assay: Fluorescence polarization assay, PSD-95 PDZ1; format: binding; details: tested at 500 µM (data not shown)
[5] = test system: hippocampal CA1 neurons; details: cited from earlier work
[6] = target: T2, PICK1 PDZ domain; details: cited from earlier work
[7] = test system: AMPA receptor trafficking; details: cited from earlier work
[8] = test system: PICK1; details: biochemical studies; cited from earlier work
[9] = target: T1, PDZ2 of PSD-95; details: PDZ domains from PSD-95; cited from earlier work
[10] = test system: PDZ4-5 of glutamate receptor interacting protein-1 (GRIP1); details: PDZ4-5 of GRIP1; cited from earlier work
[11] = target: T3, PDZ3 of PSD-95; details: PDZ domains from PSD-95; cited from earlier work
[12] = target: T4, PDZ1 of PSD-95; details: PDZ domains from PSD-95; cited from earlier work

T2 sequence (Q9EP80 whole entry, the tested form may be a part): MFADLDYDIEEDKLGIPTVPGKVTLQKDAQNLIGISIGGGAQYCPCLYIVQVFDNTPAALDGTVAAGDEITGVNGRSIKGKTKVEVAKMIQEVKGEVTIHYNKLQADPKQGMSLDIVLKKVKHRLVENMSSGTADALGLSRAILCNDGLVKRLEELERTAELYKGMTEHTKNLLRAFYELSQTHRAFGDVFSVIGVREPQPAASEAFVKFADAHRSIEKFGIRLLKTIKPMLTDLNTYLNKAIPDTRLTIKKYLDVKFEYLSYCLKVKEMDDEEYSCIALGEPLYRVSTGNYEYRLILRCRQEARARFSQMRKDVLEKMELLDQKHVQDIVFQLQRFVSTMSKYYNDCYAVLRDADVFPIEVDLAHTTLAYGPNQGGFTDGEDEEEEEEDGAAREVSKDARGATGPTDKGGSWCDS

## CCOC(=O)NC(=O)/C=C/c1ccc(Cl)c(Cl)c1 [Compound 5, (E)-ethyl 3-(3,4-dichlorophenyl)acryloylcarbamate]
[1]
  affinity towards PDZ2 of PSD-95: none of the compounds showed affinity
[2]
  affinity for PICK1 PDZ domain: devoid of affinity
[3]
  affinity towards PDZ3 of PSD-95: none of the compounds showed affinity
[4]
  affinity towards PDZ1 of PSD-95: none of the compounds showed affinity

## CCOC(=O)NC(=O)C(C#N)Cc1ccc(Cl)c(Cl)c1 (centres unmarked) [Compound 3, Ethyl 2-cyano-3-(3,4-dichlorophenyl)propanoylcarbamate]
[1]
  affinity towards PDZ2 of PSD-95: none of the compounds showed affinity
[2]
  affinity for PICK1 PDZ domain: devoid of affinity
[3]
  affinity towards PDZ3 of PSD-95: none of the compounds showed affinity
[4]
  affinity towards PDZ1 of PSD-95: none of the compounds showed affinity

## CCOC(=O)NC/C(C#N)=C/c1ccc(Cl)c(Cl)c1 [Compound 14, (Z)-ethyl 2-cyano-3-(3,4-dichlorophenyl)allylcarbamate]
[1]
  affinity towards PDZ2 of PSD-95: none of the compounds showed affinity
[2]
  affinity for PICK1 PDZ domain: devoid of affinity
[3]
  affinity towards PDZ3 of PSD-95: none of the compounds showed affinity
[4]
  affinity towards PDZ1 of PSD-95: none of the compounds showed affinity

## CCOC(=O)NC(=O)/C(C#N)=C/c1ccc(Cl)c(Cl)c1 [Compound 1, (E)-ethyl 2-cyano-3-(3,4-dichlorophenyl)acryloylcarbamate]
[5]
  effect on induction of LTD and LTP: inhibited induction of LTD and LTP
[2]
  Ki: 9.6 ± 0.22 µM
[6]; intracellular FRET
  binding to PICK1 PDZ domain in living cells: binds the PICK1 PDZ domain in living cells
[6]; not told
  membrane permeability: membrane permeable
[7]
  effect on AMPA receptor trafficking: affected AMPA receptor trafficking
[8]
  reversibility of binding to PICK1: binds reversibly
[9]
  affinity for PDZ2 of PSD-95: no affinity
[10]
  affinity for PDZ domains from GRIP1: no affinity
[11]
  affinity for PDZ3 of PSD-95: no affinity
[12]
  affinity for PDZ1 of PSD-95: no affinity

## CCCCNC(=O)/C(C#N)=C/c1ccc(Cl)c(Cl)c1 [Compound 8, (E)-N-butyl-2-cyano-3-(3,4-dichlorophenyl)acrylamide]
[1]
  affinity towards PDZ2 of PSD-95: none of the compounds showed affinity
[2]
  affinity for PICK1 PDZ domain: devoid of affinity
[3]
  affinity towards PDZ3 of PSD-95: none of the compounds showed affinity
[4]
  affinity towards PDZ1 of PSD-95: none of the compounds showed affinity
